Reference: paper PMC5761724 (Journal of medicinal chemistry, 2017)
Values belong to the compound of their own block, whether it stands above or below them.

What was measured:
[1] = system: Ub^G76V-GFP Hela cells (proteasome activity); assay: Ub^G76V-GFP degradation assay; type: cell-based; settings: Homo sapiens, read-out: Ub^G76VGFP Hela Cell IC50
Cytotoxicity assay = type: cell-based; settings: human, HCT 116 cells
Csn5 = Csn5 (Homo sapiens, UniProt Q92905); assay: CSN5 activity assay; type: biochemical
AMSH = target: T1, AMSH (Homo sapiens, UniProt O95630); assay: AMSH activity assay; type: biochemical
T1 sequence (O95630 1-424): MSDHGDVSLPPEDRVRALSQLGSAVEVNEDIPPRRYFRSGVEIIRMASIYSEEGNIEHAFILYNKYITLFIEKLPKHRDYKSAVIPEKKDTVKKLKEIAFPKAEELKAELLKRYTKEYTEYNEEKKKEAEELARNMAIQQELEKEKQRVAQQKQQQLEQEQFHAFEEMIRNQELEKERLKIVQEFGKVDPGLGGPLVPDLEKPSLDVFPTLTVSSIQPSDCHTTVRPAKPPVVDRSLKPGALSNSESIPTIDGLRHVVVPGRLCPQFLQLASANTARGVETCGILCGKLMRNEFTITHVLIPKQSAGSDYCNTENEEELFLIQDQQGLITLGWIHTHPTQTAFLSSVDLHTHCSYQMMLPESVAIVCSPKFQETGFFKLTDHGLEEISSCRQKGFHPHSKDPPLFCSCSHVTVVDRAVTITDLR

Rpn11 = Rpn11 (Homo sapiens, UniProt O00487); assay: Rpn11 fluorescence polarization deubiquitination assay; type: biochemical
BRISC complex = BRISC complex (Homo sapiens, UniProt P46736); assay: BRISC activity assay; type: biochemical; settings: Figure S1
[2] = HCT 116 Cytotoxicity IC50, Table 2

IC50 [1]: > 100 µM
Structure (SMILES): CSc1cccc2cc(C(=O)NCCc3nccs3)cnc12 [Compound 48, 8-(Methylthio)-N-(2-(thiazol-2-yl)ethyl)quinoline-3-carboxamide]

Structure (SMILES): CSc1cccc2cccnc12 [Compound 6, 8-(Methylthio)quinoline]
IC50 at 72 h (Cytotoxicity assay; HCT 116 Cytotoxicity, Table 1): > 100 µM

IC50 (Csn5): > 100 µM
IC50 (AMSH): > 100 µM
IC50 [1]: > 100 µM
IC50 (Rpn11; Rpn11 IC50): ~82 µM
IC50 (Rpn11; Rpn11 IC50, Table 5, control compounds): 82 ± 14 µM
Structure (SMILES): O=C(NCCc1nccs1)c1cnc2c(S)ccnc2c1 [Compound 50f, 8-Mercapto-N-(2-(thiazol-2-yl)ethyl)-1,5-naphthyridine-3-carboxamide]

Structure (SMILES): Sc1cccc2ncccc12 [Compound 7c, Quinoline-5-thiol]
IC50 at 72 h (Cytotoxicity assay; HCT 116 Cytotoxicity, Table 1): > 100 µM

Structure (SMILES): Cc1ccnc2c(S)cccc12 [Compound 11c, 4-Methylquinoline-8-thiol]
IC50 at 72 h (Cytotoxicity assay; [2]): > 10 µM

inhibition of BRISC (BRISC complex): significant inhibition
inhibition of Rpn11 in MBP library screen (Rpn11; fragment concentration of 200 μM): essentially complete inhibition
ligand efficiency (Rpn11; from Rpn11 IC50): 0.69
Structure (SMILES): Sc1cccc2cccnc12 [8TQ, 8-thioquinoline]
IC50 at 72 h (Cytotoxicity assay; HCT 116 Cytotoxicity, Table 1): 1.3 µM

Structure (SMILES): Sc1cccc2ccccc12 [Compound 2]
IC50 at 72 h (Cytotoxicity assay; HCT 116 Cytotoxicity, Table 1): > 100 µM

Structure (SMILES): Cc1ccc2cccc(S)c2n1 [Compound 9c, 2-Methylquinoline-8-thiol]
IC50 at 72 h (Cytotoxicity assay; [2]): > 50 µM

Structure (SMILES): Cc1cccc2cccnc12 [Compound 3]
IC50 at 72 h (Cytotoxicity assay; HCT 116 Cytotoxicity, Table 1): > 100 µM

IC50 [1]: > 100 µM
Structure (SMILES): O=C(NCCc1nccs1)c1cnc2c(O)cccc2c1 [Compound 47, 8-Hydroxy-N-(2-(thiazol-2-yl)ethyl)quinoline-3-carboxamide]

fold weaker Rpn11 activity compared to 8TQ (Rpn11): ~ 6 fold
Structure (SMILES): Sc1ccnc2cccnc12 [Compound 8e, 1,5-Naphthyridine-4-thiol]
